Source: patent US5869499A, “Benzyloxyquinuclidines as substance P antagonists” (Pfizer Inc, priority 1993, dated 1999)
Where a name gives a salt, the structure may show the parent alone.

System: plasma protein extravasation in the ureter in response to capsaicin
Assay: Capsaicin-induced plasma extravasation test
Format: in vivo, male Hartley guinea pigs
Settings: dosed orally 1 h before capsaicin challenge, guinea pig ureter
Protocol: In this test, antiinflammatory activity is determined as the percent inhibition of plasma protein extravasation in the ureter of male Hartley quinea pigs (weighing 300-350 g) in response to the intraperitoneal injection of capsaicin into anesthetized animals. The compounds of the present invention are dissolved in 0.1% methyl cellulose/water and dosed orally 1 h before capsaicin challenge. Evans Blue dye (30 mg/kg) is administered intravenously 5 min before capsaicin challenge. The animals are killed 10 min after capsaicin injection and both right and left ureters are removed. The Evans Blue dye is extracted and determined […]. In the above tests, compounds are considered active if the difference in response between the drug-treated animals and a control group receiving the vehicle alone is statistically significant.

| SMILES | ED50 (Cavia porcellus, po) | ED50 relative to ED50 of non-substituted compound (x) |
| --- | --- | --- |
| FC(F)(F)c1cc(CO[C@H]2C3CCN(CC3)[C@H]2C(c2ccccc2)c2ccccc2)cc(C(F)(F)F)c1 [compound (x)] | 2.4 mg/kg |  |
| O=C(O)[C@@H]1CN2CC[C@H]1[C@H](OCc1cc(C(F)(F)F)cc(C(F)(F)F)c1)[C@@H]2C(c1ccccc1)c1ccccc1 [Example 2, (3S,4R,5S,6S)-3,5-bis(trifluoromethyl)benzyoxy)-6-diphenylmethyl-5-(-1-azabicyclo[2.2.2]octane-3-carboxylic acid hydrochloride] |  | more than 100 times lower |
